What was measured:
[1] = test system: Lolium spp. resistant to HRAC group B; experiment: greenhouse experiment, post-emergence treatment of resistant ryegrass biotypes (HRAC group B resistant); type: in vivo; conditions: post-emergence (PO, BBCH 11), about 3 weeks after application, dose g of AS/ha: aclonifen 225, pendimethalin 300, picolinafen 25, mixture 225 + 300 + 25, mesosulfuron + iodosulfuron + mefenpyr 15 + 3 + 45
Description: (§1) In the standard design of the test, seeds of various broad-leaved weed and weed grass biotypes (origins) were sown in a 8-13 cm diameter pot filled with natural soil of a standard field soil (loamy silt; non-sterile) and covered with a covering soil layer of about 1 cm. The pots were then cultivated in a greenhouse (12-16 h light, temperature day 20-22° C., night 15-18° C.) until the time of application. The pots were treated on a laboratory track sprayer with spray liquors comprising the compositions according to the invention, mixtures of the prior art or components used individually. Application of the active compounds or active compound combinations formulated as WG, WP, EC or otherwise was carried out at the appropriate growth stages of the plants. The amount of water used for spray application was 100-600 l/ha. After the treatment, the plants were returned to the greenhouses.
(§2) About 3 weeks after the application, the soil action or/and foliar action was assessed visually according to a scale of 0-100% in comparison to an untreated comparative group: 0%=no noticeable effect compared to the untreated comparative group; 100%=full effect compared to the untreated comparative group.
(§3) 2. Post-emergence action against weeds: seeds of various broad-leaved weed and weed grass biotypes (origins) were sown in a 8-13 cm diameter pot filled with natural soil of a standard field soil (loamy silt; non-sterile) and covered with a covering soil layer of about 1 cm. The pots were then cultivated in a greenhouse (12-16 h of light, temperature day 20-22° C., night 15-18° C.) until the time of application. […]
(§4) Insofar as herbicidal effects of the compositions according to the invention compared to mixtures of the prior art or compared to components applied individually against economically important mono- and dicotyledonous harmful plants were the center of attention, the synergistic herbicidal activities were calculated using Colby's formula (cf. S. R. Colby; Weeds 15 (1967), 20-22): E^C=(A+B+C)−(A×B+A×C+B×C)/100+(A×B×C)/10000 where: […]

[2] = test system: Lolium spp. resistant to HRAC group A; experiment: greenhouse experiment, post-emergence treatment of resistant ryegrass biotypes (HRAC group A resistant); type: in vivo; conditions: post-emergence (PO, BBCH 11), about 3 weeks after application, dose g of AS/ha: aclonifen 225, pendimethalin 300, picolinafen 25, mixture 225 + 300 + 25, pinoxaden + cloquintocet-mexyl 60 + 15
Description: as §1, §2, §3, §4

Row | Compound | herbicidal effect, visual assessment on a scale of 0-100% versus untreated comparative group [1] | herbicidal effect, visual assessment on a scale of 0-100% versus untreated comparative group [2]
1 | CCC(CC)Nc1c([N+](=O)[O-])cc(C)c(C)c1[N+](=O)[O-] [(B) pendimethalin, N-(1-ethylpropyl)-3,4-dimethyl-2,6-dinitrobenzenamine] | 0% | 5%
2 | Nc1c([N+](=O)[O-])ccc(Oc2ccccc2)c1Cl [(A) aclonifen, 2-chloro-6-nitro-3-phenoxybenzenamine] | 50% | 25%
3 | O=C(Nc1ccc(F)cc1)c1cccc(Oc2cccc(C(F)(F)F)c2)n1 [(C) picolinafen, N-(4-fluorophenyl)-6-[3-(trifluoromethyl)phenoxy]-2-pyridinecarboxamide] | 5% | 10%

Reference: patent US9426990B2, “Herbicidal agents containing aclonifen” (BAYER CROPSCIENCE AG, priority 2012, dated 2016)
